According to patent publication US10006030B2, “RNA interference compositions targeting heat shock protein 90 and methods of use thereof” (SILENSEED LTD., priority 2014, dated 2018):
d = 2'-deoxy (DNA); r = 2'-OH (RNA)

How the values were obtained:
LNCaP cells = test: methylene blue (MB) cell viability assay after siRNA transfection; type: cell-based; settings: Lipofectamine 2000 transfection, 72 hours incubation, FIG. 1
Protocol: Prostate cancer cell line LNCaP (ATCC # CRL-1740) was grown in Roswell Park Memorial Institute medium (RPMI) supplemented with 10% fetal bovine serum (FBS) and 100 units/ml penicillin/streptomycin, according to the ATCC protocol. Cells were seeded into 96-well culture plates and incubated overnight before transfection with siRNAs targeting HSP90 sequences.
Cells were transfected using Lipofectamine® 2000 transfection reagent (Life Technologies) based on manufacturer's protocol, with siRNA targeting HSP90: HSP1-1 (sense strand SEQ ID NO: 4, anti-sense strand SEQ ID NO: 8), HSP1-2 (sense strand SEQ ID NO: 5, anti-sense strand SEQ ID NO: 9), and HSP1-3 (sense strand SEQ ID NO: 6, anti-sense strand SEQ ID NO: 10). Cells were also treated with HSP90 inhibitor NVP-AUY922 (or AUY922), a resorcinylicisoxazole amide was used at 5 nM and 10 nM (with similar effect), or left untreated. After 72 hours incubation, cellular viability was determined by standard methylene blue (MB) assay, and quantitated as percentage of viable cells in relation to the untreated sample (FIG. 1).

Androgen receptor = test: AR-dependent luciferase reporter assay in transfected LNCaP cells; type: cell-based; settings: co-transfection, 24 hours post-transfection, vs mock, p<0.05, FIG. 2
Protocol: HPS90 is known to be a chaperone of AR (androgen receptor), and is necessary for correct AR post-translational processing. To further test RNAi targeting of HSP90, an AR-dependent luciferase reporter construct was used (FIG. 2). LNCaP cells were cultured as above, and were seeded onto a 48-well culture plate. After an overnight incubation, plated cells were co-transfected using Lipofectamine® 2000 transfection reagent (Life Technologies) based on manufacturer's protocol for DNA-RNA transfections with an AR-luciferase reporter plasmid (Qiagen, CCS-1019L), and siRNA targeting HSP90 (HSP1-1 (sense strand SEQ ID NO: 4, anti-sense strand SEQ ID NO: 8); AR (siAR-1), or a non-target scrambled siRNA (si-scr). Cells transfected only with the AR-luciferase reported plasmid served as the negative control (mock). 24 hours post-transfection, cells were lysed and luciferase activity determined with the Promega luciferase detection kit.

| Substance | cellular viability (percentage of viable cells in relation to the untreated sample) (LNCaP cells) | luciferase activity of AR-luciferase reporter plasmid (Androgen receptor) |
| --- | --- | --- |
| HSP1-2: siRNA targeting HSP90, sense strand SEQ ID NO: 5, anti-sense strand SEQ ID NO: 9 (sense AAGAGCUGCAUAUUAACCUTT; antisense AGGUUAAUAUGCAGCUCUUTT; sugars from the 5' end r19 d2, backbone not given here) | statistically significant decrease | – |
| HSP1-1: siRNA targeting HSP90, sense strand SEQ ID NO: 4, anti-sense strand SEQ ID NO: 8 (sense 5'-AAG ACC AAC CGA UGG AGGAdTdT-3'; antisense 5'-UCC UCC AUC GGU UGG UCUUdTdT-3; as printed in the source, key not given here) | statistically significant decrease | significantly decreased |
| HSP1-3: siRNA targeting HSP90, sense strand SEQ ID NO: 6, anti-sense strand SEQ ID NO: 10 (sense AAGUCUGGGACCAAAGCGUTT; antisense ACGCUUUGGUCCCAGACUUTT; sugars from the 5' end r19 d2, backbone not given here) | statistically significant decrease | – |
